For orientation: IC50 means the concentration that inhibits the measured activity by half.

Six compounds from patent US12509467B2 (Hoffmann-La Roche Inc., priority 2020, dated 2025) can be followed below.

SMILES strings stand for the structures.

T1 sequence (Q8N884 161-522): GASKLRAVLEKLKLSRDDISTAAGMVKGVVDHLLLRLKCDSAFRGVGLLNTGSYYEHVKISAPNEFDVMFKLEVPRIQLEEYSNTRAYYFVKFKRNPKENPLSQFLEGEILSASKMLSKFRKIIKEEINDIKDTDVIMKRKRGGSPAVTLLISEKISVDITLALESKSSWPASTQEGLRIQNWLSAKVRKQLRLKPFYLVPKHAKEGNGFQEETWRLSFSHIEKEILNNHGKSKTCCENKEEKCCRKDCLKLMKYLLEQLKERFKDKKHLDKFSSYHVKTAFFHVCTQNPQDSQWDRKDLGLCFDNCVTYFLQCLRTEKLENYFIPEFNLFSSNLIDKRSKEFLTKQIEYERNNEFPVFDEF

The first assay addresses T1, human cGAS (residues 161-522) (Homo sapiens, UniProt Q8N884).
T1 construct: Recombinantly expressed purified human cGAS (residues 161-522) was used at 25 nM; made in house
Briefly: cGAS Activity Assay—Malachite Green. The assay is classed as biochemical.
Conditions: not given
The gist of the method: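 Coupled malachite-green phosphate detection was used: enzyme and compound in 20 mM TRIS pH 7.5, 5 mM MgCl2, 0.01% BSA with 80 μM ATP, 80 μM GTP and 100 nM ISD DNA, 4 h at RT in the dark.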
In the case of `CCCc1cc(=O)n2nc(NC(C)c3ccc(-c4ccccc4)cc3)nc2[nH]1` (stereo not drawn) [Example 56, 2-[1-(4-phenylphenyl)ethyl-amino]-5-propyl-4H-[1,2,4]-triazolo[1,5-a]pyrimidin-7-one], inhibition was half-maximal at 2870 nM (IC50).

Take `CCCc1cc(=O)n2nc(NCc3ccc(-c4ccccc4)cc3Cl)nc2[nH]1` [Example 4]: the IC50 stood at 765 nM.

Compound `O=c1cc(CNc2ccccc2)[nH]c2nc(NCc3ccc(Cl)cc3Cl)nn12` [Example 79, 5-(Anilinomethyl)-2-[(2,4-dichlorophenyl)methylamino]-4H-[1,2,4]triazolo[1,5-a]pyrimidin-7-one] showed an IC50 of 4610 nM.

Staying with this assay, now noted: cGAS inhibition; 25 nM cGAS, 80 μM ATP, 80 μM GTP, 100 nM ISD, 4 hour at RT, Malachite Green phosphate detection; read-out: IC50 cGAS.
On to `CC(Nc1nc2[nH]c(C(F)(F)F)cc(=O)n2n1)c1ccc(-c2ccccc2)cc1` (stereo not drawn) [Example 78, 2-[1-(4-phenylphenyl)ethyl-amino]-5-(trifluoromethyl)-4H-[1,2,4]triazolo[1,5-a]pyrimidin-7-one], for which the IC50 is 2450 nM.

In the case of `CCCc1cc(=O)n2nc(NCc3cc(-c4cccnn4)ccc3Cl)nc2[nH]1` [Example 85, 2-[(2-Chloro-5-pyridazin-3-yl-phenyl)methylamino]-5-propyl-4H-[1,2,4]triazolo[1,5-a]pyrimidin-7-one], the IC50 was found to be 2770 nM.

`CCCCc1cc(=O)n2nc(NCc3cc(-c4ccccc4)on3)nc2[nH]1` [Example 46, 5-butyl-2-[(5-phenylisoxazol-3-yl)methylamino]-4H-[1,2,4]-triazolo[1,5-a]pyrimidin-7-one-5-butyl-2-[(5-phenylisoxazol-3-yl)methylamino]-4H-[1,2,4]-triazolo[1,5-a]pyrimidin-7-one]: the IC50 came to 805 nM.
